Test results taken from patent US12180159B2, “Activators of the unfolded protein response” (The Board of Trustees of the University of Illinois, priority 2018, dated 2024).

Test system: ATP levels in TYS-Luc cells
Assay: Intracellular ATP levels
Assay type: cell-based, human
Settings: 1,000 nM
Protocol: TYS-Luc cells were maintained DMSO vehicle (Veh), 1,000 nM BHPI, 1,000 nM (−)-105 with and without 10,000 nM thapsigargin (THG) for the indicated times. ATP levels were determines using a kit and relative ATP levels were from a standard curve. […] (n=3±SEM).

## O=C1Nc2c(C(F)(F)F)cccc2C1(c1ccc(O)cc1)c1ccc(OC(F)(F)F)cc1 (single isomer, unassigned; (-)) [(−)-105, 3-(4-hydroxyphenyl)-3-(4-(trifluoromethoxy)phenyl)-7-(trifluoromethyl)indolin-2-one]
  intracellular ATP levels: reduces intracellular ATP levels
